Source: US20120190613A1, “ECHINOCANDIN DERIVATIVES” (priority 2009, published 2012)
Marks after values point to notes of the source that are not given here.

System: C. albicans R303
Experiment: Mouse candidiasis infection model, C. albicans density in kidneys
Assay type: in vivo, female CD-1 mice
Conditions: for Difference from 24-hr control / Mean log10 CFU/kidneys (±SD) / Difference from 24-h control / Mean log10 CFU/kidneys (±SEM): kidneys at 24 hr
Procedure: The objective of these studies was to evaluate the efficacy of test compounds in the mouse candidiasis infection model.
The strain, C. albicans R303 was transferred from frozen storage onto Sabauroud dextrose agar (SDA) plates and grown for ˜24 hr at 35° C. The inoculum was prepared by transferring colonies from the plate to phosphate buffered saline (PBS) and the concentration adjusted to 10^6 CFU/mL with the aid of a spectrophotometer. The stock was diluted 1:9 to prepare the inoculum. Prior to each run the concentration was verified using the dilution plate count method.
The female CD-1 mice used in this study were obtained from Charles River Laboratories, Portage, MI. The animals were approximately seven-weeks-old at the start of the study and weighed about 16-26 g.
In one approach, mice were made neutropenic with IP injections of cyclophosphamide (150 mg/kg in 10 mL/kg) at 4 and 1 day before inoculation. Each animal was inoculated with the appropriate concentration by injecting 0.1 mL of inoculum into a tail vein. The test compounds were administered IP at 2 hr after infection.
The kidneys were collected from four mice in control group 1 (untreated) at 2 hr after infection, and from the remaining mice in the study at 24 hr after infection. Kidneys were removed aseptically from each mouse and were combined in a sterile tube. An aliquot (2 mL) of sterile PBS was added to each tube and the contents homogenized with a tissue homogenizer (Polytron 3100). Serial dilutions of the tissue homogenates were conducted and 0.1 mL aliquots were spread on SDA plates and the plates incubated at 35° C. overnight. The CFU/kidneys were determined from colony counts. Data were analyzed using one-way ANOVA with the Tukey-Kramer Multiple Comparisons Test (GraphPad InStat version 3.06, GraphPad Software, San Diego, Calif.).
Treatments were administered at 2 hr after infection with 2.1×10^5 CFU/mL of the organism. Data are the means of four mice.
Treatments were administered at 2 hr after infection with 6.4×10^5 CFU/mL of the organism. Data are the means of four mice.
Treatments were administered at 2 hr after infection with 3.8×10^5 CFU/mL of the organism. Data are the means of four mice.
Treatments were administered at 2 hr after infection with 3.8×10^5 CFU/rnL of the organism. Data are the means of four mice.

[1] = Second run, 5 mg/kg IP 2 hr after infection
[2] = Fourth run, 0.5 mg/kg IP 2 hr after infection
[3] = Fourth run, 1.5 mg/kg IP 2 hr after infection
[4] = Fourth run, 4.5 mg/kg IP 2 hr after infection
[5] = Third run, 0.5 mg/kg IP 2 hr after infection
[6] = Third run, 1.5 mg/kg IP 2 hr after infection
[7] = Third run, 4.5 mg/kg IP 2 hr after infection

CCC(C)CC(C)CCCCCCCCC(=O)NC1CC(O)C(NCCN)NC(=O)C2C(O)CCN2C(=O)C(C(O)CCNC(=O)OCCOCCOCCOC)NC(=O)C(C(O)C(O)c2ccc(O)cc2)NC(=O)C2CC(O)CN2C(=O)C(C(C)O)NC1=O (stereo not drawn) [Compound 15]
Difference from 24-hr control [1]: −0.45 ns log10 CFU/kidneys
Mean log10 CFU/kidneys (±SD) [1]: 4.75 ± 0.20 log10 CFU/kidneys

CCC(C)CC(C)CCCCCCCCC(=O)NC1CC(O)C(NCCOCCOCCOCCOC)NC(=O)C2C(O)CCN2C(=O)C(C(O)CCN)NC(=O)C(C(O)C(O)c2ccc(O)cc2)NC(=O)C2CC(O)CN2C(=O)C(C(C)O)NC1=O (stereo not drawn) [Compound 16]
Difference from 24-h control [2]: −0.16 ns log10 CFU/kidneys
Mean log10 CFU/kidneys (±SEM) [2]: 5.05 ± 0.12 log10 CFU/kidneys
Difference from 24-h control [3]: −0.04 ns log10 CFU/kidneys
Mean log10 CFU/kidneys (±SEM) [3]: 5.16 ± 0.03 log10 CFU/kidneys
Difference from 24-h control [4]: −0.42 ns log10 CFU/kidneys
Mean log10 CFU/kidneys (±SEM) [4]: 4.78 ± 0.18 log10 CFU/kidneys
Effect on density of C. albicans in the kidneys (Fourth run, all dose levels (0.5, 1.5, 4.5 mg/kg)): ineffective

CCC(C)CC(C)CCCCCCCCC(=O)NC1CC(O)C(NCCOC)NC(=O)C2C(O)CCN2C(=O)C(C(O)CCN)NC(=O)C(C(O)C(O)c2ccc(O)cc2)NC(=O)C2CC(O)CN2C(=O)C(C(C)O)NC1=O (stereo not drawn) [Compound 17]
Effect on density of C. albicans in the kidneys (Fourth run, 0.5 mg/kg): not
Difference from 24-h control [2]: −0.87 ns log10 CFU/kidneys
Mean log10 CFU/kidneys (±SEM) [2]: 4.33 ± 0.14 log10 CFU/kidneys
Difference from 24-h control [3]: −2.09*** log10 CFU/kidneys
Mean log10 CFU/kidneys (±SEM) [3]: 3.11 ± 0.14 log10 CFU/kidneys
Difference from 24-h control [4]: −4.25*** log10 CFU/kidneys
Mean log10 CFU/kidneys (±SEM) [4]: 0.95 ± 0.55 log10 CFU/kidneys
Effect on density of C. albicans in the kidneys (Fourth run, 4.5 and 1.5 mg/kg): significantly reduced the density

CCCCCOc1ccc(-c2ccc(-c3ccc(C(=O)NC4CC(O)C(OCCOC)NC(=O)C5C(O)C(C)CN5C(=O)C(C(C)O)NC(=O)C(C(O)C(O)c5ccc(O)cc5)NC(=O)C5CC(O)CN5C(=O)C(C(C)O)NC4=O)cc3)cc2)cc1 (stereo not drawn) [Compound 18]
Difference from 24-hr control [1]: −3.44*** log10 CFU/kidneys
Mean log10 CFU/kidneys (±SD) [1]: 1.76 ± 0.44 log10 CFU/kidneys

CCCCCOc1ccc(-c2ccc(-c3ccc(C(=O)NC4CC(O)C(OCCOCCOC)NC(=O)C5C(O)C(C)CN5C(=O)C(C(C)O)NC(=O)C(C(O)C(O)c5ccc(O)cc5)NC(=O)C5CC(O)CN5C(=O)C(C(C)O)NC4=O)cc3)cc2)cc1 (stereo not drawn) [Compound 19]
Difference from 24-hr control [1]: −3.49*** log10 CFU/kidneys
Mean log10 CFU/kidneys (±SD) [1]: 1.71 ± 0.35 log10 CFU/kidneys
Difference from 24-hr control [5]: −0.03 ns log10 CFU/kidneys
Mean log10 CFU/kidneys (±SEM) [5]: 4.84 ± 0.26 log10 CFU/kidneys
Difference from 24-hr control [6]: −2.06*** log10 CFU/kidneys
Mean log10 CFU/kidneys (±SEM) [6]: 2.82 ± 0.10 log10 CFU/kidneys
Difference from 24-hr control [7]: −3.82*** log10 CFU/kidneys
Mean log10 CFU/kidneys (±SEM) [7]: 1.05 ± 0.36 log10 CFU/kidneys

CCCCCOc1ccc(-c2ccc(-c3ccc(C(=O)NC4CC(O)C(OCCOCCOCCOC)NC(=O)C5C(O)C(C)CN5C(=O)C(C(C)O)NC(=O)C(C(O)C(O)c5ccc(O)cc5)NC(=O)C5CC(O)CN5C(=O)C(C(C)O)NC4=O)cc3)cc2)cc1 (stereo not drawn) [Compound 20]
Difference from 24-hr control [1]: −3.27*** log10 CFU/kidneys
Mean log10 CFU/kidneys (±SD) [1]: 1.93 ± 0.44 log10 CFU/kidneys

CCCCCOc1ccc(-c2ccc(-c3ccc(C(=O)NC4CC(O)C(OCCOCCO)NC(=O)C5C(O)C(C)CN5C(=O)C(C(C)O)NC(=O)C(C(O)C(O)c5ccc(O)cc5)NC(=O)C5CC(O)CN5C(=O)C(C(C)O)NC4=O)cc3)cc2)cc1 (stereo not drawn) [Compound 21]
Difference from 24-hr control [5]: −1.53** log10 CFU/kidneys
Mean log10 CFU/kidneys (±SEM) [5]: 3.35 ± 0.08 log10 CFU/kidneys
Difference from 24-hr control [6]: −2.62*** log10 CFU/kidneys
Mean log10 CFU/kidneys (±SEM) [6]: 2.26 ± 0.12 log10 CFU/kidneys
Difference from 24-hr control [7]: −4.22*** log10 CFU/kidneys
Mean log10 CFU/kidneys (±SEM) [7]: 0.65 ± 0.38 log10 CFU/kidneys
Effect on density of C. albicans in the kidneys compared to the infected controls (Third run, all dose levels (0.5, 1.5, 4.5 mg/kg)): significantly reduced the density
